What follows are compounds tested on HBV viral load (viral production from HepAD38 cells) (assay: Activity of test compounds on viral production from HepAD38 cells (viral load by qPCR of HBV core sequence)). Details: Hepatitis B virus, HePAD38, 120 h, viral load lowering, 5 days, qPCR of supernatant, read-out: VL HepAD38 EC50 range.
Format: cell-based
Method in brief: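 HepAD38 cells seeded at 50,000/well in tetracycline-free medium with 2% FBS, treated 5 days at 37 °C with compounds from 10 μM top concentration. Supernatant HBV DNA quantified by TaqMan qPCR of core sequence against HBV DNA standards, relative to DMSO wells; viability by CellTiter-Glo; EC50/CC50 by four-parameter logistic fit.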
`CC(C)Cn1nc([N+](=O)[O-])cc1C1(O)CC2CC(c3ncn(C)c3C(=O)Nc3ccc(F)c(Cl)c3)CC2C1` (stereo not drawn) [Example 165, N-(3-Chloro-4-fluorophenyl)-4-(5-hydroxy-5-(1-isobutyl-3-nitro-1H-pyrazol-5-yl)octahydropentalen-2-yl)-1-methyl-1H-imidazole-5-carboxamide] gave an EC50 of less than 10 nM. `CC(O)c1cc(C2(O)CC3CC(c4ncn(C)c4C(=O)Nc4ccc(F)c(Cl)c4)CC3C2)n(C)n1` (stereo not drawn) [Example 109, N-(3-Chloro-4-fluorophenyl)-4-(5-hydroxy-5-(3-(1-hydroxyethyl)-1-methyl-1H-pyrazol-5-yl)octahydropentalen-2-yl)-1-methyl-1H-imidazole-5-carboxamide] was tested, and the EC50 was less than 10 nM. `Cn1cnc(C2CC3CC(O)(c4ccc(F)cc4)CC3C2)c1C(=O)Nc1ccc(F)c(Cl)c1` (stereo not drawn) [Example 7, N-(3-Chloro-4-fluorophenyl)-4-(5-(4-fluorophenyl)-5-hydroxyoctahydropentalen-2-yl)-1-methyl-1H-imidazole-5-carboxamide] showed an EC50 of less than 10 nM. `Cn1cnc(C2CC3CC(O)(c4cc(C(F)F)nn4C)CC3C2)c1C(=O)Nc1ccc(F)c(Cl)c1` (stereo not drawn) [Example 133, N-(3-chloro-4-fluorophenyl)-4-(5-(3-(difluoromethyl)-1-methyl-1H-pyrazol-5-yl)-5-hydroxyoctahydropentalen-2-yl)-1-methyl-1H-imidazole-5-carboxamide] was tested, and the EC50 was less than 10 nM. Work on `Cn1cnc(C2CC3CC(O)(c4c(F)c(C#N)nn4C)CC3C2)c1C(=O)Nc1ccc(F)c(Cl)c1` (stereo not drawn) [Example 64, N-(3-Chloro-4-fluorophenyl)-4-(5-(3-cyano-4-fluoro-1-methyl-1H-pyrazol-5-yl)-5-hydroxyoctahydropentalen-2-yl)-1-methyl-1H-Imidazole-5-carboxamide] yielded an EC50 of less than 10 nM. `CC(CO)Oc1cc(C2(O)CC3CC(c4ncn(C)c4C(=O)Nc4ccc(F)c(Cl)c4)CC3C2)n(C)n1` (single isomer, unassigned) [Example 68, N-(3-Chloro-4-fluorophenyl)-4-(5-hydroxy-5-(3-((1-hydroxypropan-2-yl)oxy)-1-methyl-1H-pyrazol-5-yl)octahydropentalen-2-yl)-1-methyl-1H-imidazole-5-carboxamide] was tested, and the EC50 was less than 10 nM. Compound `Cn1cnc(C2CC3CC(O)(c4cc(C(C)(C)C#N)nn4C)CC3C2)c1C(=O)Nc1ccc(F)c(Cl)c1` (stereo not drawn) [Example 104, N-(3-chloro-4-fluorophenyl)-4-(5-(3-(2-cyanopropan-2-yl)-1-methyl-1H-pyrazol-5-yl)-5-hydroxyoctahydropentalen-2-yl)-1-methyl-1H-imidazole-5-carboxamide] has an EC50 of less than 10 nM. For `Cc1cc(C2(O)CC3CC(c4ncn(C)c4C(=O)Nc4ccc(F)c(Cl)c4)CC3C2)[nH]n1` (stereo not drawn) [Example 144, N-(3-Chloro-4-fluorophenyl)-4-(5-hydroxy-5-(3-methyl-1H-pyrazol-5-yl)octahydropentalen-2-yl)-1-methyl-1H-imidazole-5-carboxamide], the EC50 was less than 10 nM. With `Cn1cnc(C2CC3CC(O)(c4[nH]nc(C(F)(F)F)c4Br)CC3C2)c1C(=O)Nc1ccc(F)c(C#N)c1` (stereo not drawn) [Example 195, 4-(5-(4-Bromo-3-(trifluoromethyl)-1H-pyrazol-5-yl)-5-hydroxyoctahydropentalen-2-yl)-N-(3-cyano-4-fluorophenyl)-1-methyl-1H-imidazole-5-carboxamide] the EC50 was less than 10 nM. With `Cn1cnc(C2CC3CC(N)CC3C2)c1C(=O)Nc1ccc(F)c(Cl)c1` (stereo not drawn) [Example 13, 4-(5-Aminooctahydropentalen-2-yl)-N-(3-chloro-4-fluorophenyl)-1-methyl-1H-imidazole-5-carboxamide] the EC50 was 10 to 50 nM. Work on `Cn1cnc(C2CC3CC(O)(c4ccccn4)CC3C2)c1C(=O)Nc1ccc(F)c(Cl)c1` (stereo not drawn) [Example 9, N-(3-Chloro-4-fluorophenyl)-4-(5-hydroxy-5-(pyridin-2-yl)octahydropentalen-2-yl)-1-methyl-1H-imidazole-5-carboxamide] yielded an EC50 of less than 10 nM. For `Cc1cc(C2(O)CC3CC(c4ncn(C)c4C(=O)Nc4ccc(F)c(Cl)c4)CC3C2)n(C)n1` (single isomer, unassigned) [Example 71, N-(3-Chloro-4-fluorophenyl)-4-(5-(1,3-dimethyl-1H-pyrazol-5-yl)-5-hydroxyoctahydropentalen-2-yl)-1-methyl-1H-imidazole-5-carboxamide], the EC50 was less than 10 nM. `Cn1cnc(C2CC3CC(O)(c4cc(OCC(O)C(F)(F)F)nn4C)CC3C2)c1C(=O)Nc1ccc(F)c(Cl)c1` (stereo not drawn) [Example 207, N-(3-Chloro-4-fluorophenyl)-4-(5-hydroxy-5-(1-methyl-3-(3,3,3-trifluoro-2-hydroxypropoxy)-1H-pyrazol-5-yl)octahydropentalen-2-yl)-1-methyl-1H-imidazole-5-carboxamide] gave an EC50 of less than 10 nM. Work on `O=C(Nc1ccc(F)c(Cl)c1)c1c(C2CC3CC(O)CC3C2)nc2n1CCOC2` (stereo not drawn) [Example 82, N-(3-Chloro-4-fluorophenyl)-2-(5-hydroxyoctahydropentalen-2-yl)-5,6-dihydro-8H-imidazo[2,1-c][1,4]oxazine-3-carboxamide] yielded an EC50 of 50 to 500 nM. `Cc1nc(C2CC3CC(O)(c4ccnn4C(C)C)CC3C2)c(C(=O)Nc2ccc(F)c(Cl)c2)n1C` (stereo not drawn) [Example 140, N-(3-Chloro-4-fluorophenyl)-4-(5-hydroxy-5-(1-isopropyl-1H-pyrazol-5-yl)octahydropentalen-2-yl)-1,2-dimethyl-1H-imidazole-5-carboxamide] was tested, and the EC50 was less than 10 nM. For `Cn1cnc(C2CC3CC(O)(c4c(Cl)c(N)nn4C)CC3C2)c1C(=O)Nc1ccc(F)cc1` (stereo not drawn) [Example 103, 4-(5-(3-amino-4-chloro-1-methyl-1H-pyrazol-5-yl)-5-hydroxyoctahydropentalen-2-yl)-N-(4-fluorophenyl)-1-methyl-1H-imidazole-5-carboxamide], the EC50 was less than 10 nM. Compound `CC(C)Cn1nc(OCC(C)(C)O)cc1C1(O)CC2CC(c3ncn(C)c3C(=O)Nc3ccc(F)c(Cl)c3)CC2C1` (stereo not drawn) [Example 221, N-(3-Chloro-4-fluorophenyl)-4-(5-hydroxy-5-(3-(2-hydroxy-2-methylpropoxy)-1-isobutyl-1H-pyrazol-5-yl)octahydropentalen-2-yl)-1-methyl-1H-imidazole-5-carboxamide] has an EC50 of less than 10 nM. `CC(C)Cn1nc(N)c(Cl)c1C1(O)CC2CC(c3ncn(C)c3C(=O)Nc3ccc(F)c(Cl)c3)CC2C1` (stereo not drawn) [Example 172, 4-(5-(3-Amino-4-chloro-1-isobutyl-1H-pyrazol-5-yl)-5-hydroxyoctahydropentalen-2-yl)-N-(3-Chloro-4-fluorophenyl)-1-methyl-1H-imidazole-5-carboxamide] showed an EC50 of less than 10 nM. `Cn1cnc(C2CC3CC(O)CC3C2)c1C(=O)Nc1ccc(F)c(Cl)c1` (single isomer, unassigned) [Example 2, N-(3-Chloro-4-fluorophenyl)-4-(5-hydroxyoctahydropentalen-2-yl)-1-methyl-1H-imidazole-5-carboxamide] showed an EC50 of less than 10 nM. Compound `Cn1cnc(C2CC3CC(O)(c4cc(NCC(F)(F)F)nn4C)CC3C2)c1C(=O)Nc1ccc(F)c(Cl)c1` (stereo not drawn) [Example 197, N-(3-Chloro-4-fluorophenyl)-4-(5-hydroxy-5-(1-methyl-3-((2,2,2-trifluoroethyl)amino)-1H-pyrazol-5-yl)octahydropentalen-2-yl)-1-methyl-1H-imidazole-5-carboxamide] has an EC50 of less than 10 nM. `Cn1cnc(C2CC3CC(O)(Cc4cc(C(F)(F)F)nn4C)CC3C2)c1C(=O)Nc1ccc(F)c(Cl)c1` (stereo not drawn) [Example 155, N-(3-Chloro-4-fluorophenyl)-4-(5-hydroxy-5-((1-methyl-3-(trifluoromethyl)-1H-pyrazol-5-yl)methyl)octahydropentalen-2-yl)-1-methyl-1H-imidazole-5-carboxamide] gave an EC50 of less than 10 nM. Compound `Cn1cc(C2(O)CC3CC(c4ncn(C)c4C(=O)Nc4ccc(F)c(Cl)c4)CC3C2)c(C(F)F)n1` (stereo not drawn) [Example 132, N-(3-chloro-4-fluorophenyl)-4-(5-(3-(difluoromethyl)-1-methyl-1H-pyrazol-4-yl)-5-hydroxyoctahydropentalen-2-yl)-1-methyl-1H-imidazole-5-carboxamide] has an EC50 of less than 10 nM. `CN1CCn2c(nc(C3CC4CC(O)CC4C3)c2C(=O)Nc2ccc(F)c(Cl)c2)C1` (stereo not drawn) [Example 91, N-(3-chloro-4-fluorophenyl)-2-(5-hydroxyoctahydropentalen-2-yl)-7-methyl-5,6,7,8-tetrahydroimidazo[1,2-a]pyrazine-3-carboxamide] was tested, and the EC50 was less than 10 nM. With `Cn1cnc(C2CC3CC(O)(c4cnn(C)c4C(F)(F)F)CC3C2)c1C(=O)Nc1ccc(F)c(Cl)c1` (stereo not drawn) [Example 141, N-(3-Chloro-4-fluorophenyl)-4-(5-hydroxy-5-(1-methyl-5-(trifluoromethyl)-1H-pyrazol-4-yl)octahydropentalen-2-yl)-1-methyl-1H-imidazole-5-carboxamide] the EC50 was less than 10 nM. `CN(C)c1ccn(CC2(O)CC3CC(c4ncn(C)c4C(=O)Nc4ccc(F)c(Cl)c4)CC3C2)n1` (stereo not drawn) [Example 96, N-(3-chloro-4-fluorophenyl)-4-(5-((3-(dimethylamino)-1H-pyrazol-1-yl)methyl)-5-hydroxyoctahydropentalen-2-yl)-1-methyl-1H-imidazole-5-carboxamide] showed an EC50 of less than 10 nM. `Cn1cnc(C2CC3CC(O)(c4cnn(C)c4C(F)F)CC3C2)c1C(=O)Nc1ccc(F)c(Cl)c1` (stereo not drawn) [Example 147, N-(3-Chloro-4-fluorophenyl)-4-(5-(5-(difluoromethyl)-1-methyl-1H-pyrazol-4-yl)-5-hydroxyoctahydropentalen-2-yl)-1-methyl-1H-imidazole-5-carboxamide] gave an EC50 of less than 10 nM.

Same assay, conditions: viral load lowering, 5 days, qPCR of supernatant, read-out: VL HepAD38 EC50 range
`CC(O)c1nn(C)cc1C1(O)CC2CC(c3ncn(C)c3C(=O)Nc3ccc(F)c(Cl)c3)CC2C1` (single isomer, unassigned) [Example 189, N-(3-Chloro-4-fluorophenyl)-4-(5-hydroxy-5-(3-(1-hydroxyethyl)-1-methyl-1H-pyrazol-4-yl)octahydropentalen-2-yl)-1-methyl-1H-imidazole-5-carboxamide] gave an EC50 of less than 10 nM.
